Data: PMC12562324, “Surfactin Structural Variants Differentially Modulate Plant Immune Responses” (Biomolecules, 2025)

Assays:
Type in all cases: cell-based
[1] = system: Arabidopsis thaliana Col-0 roots; test: [ROS]intra burst in roots, DCFH-DA fluorescent probe; details: mix of homologues, 10 µM, fold change at 20 min vs mock (DMSO 0.1%); n = 9 from three independent experiments; Figure 2B,C
Method: For cytoplasmic hydrogen peroxide (reflecting cytosolic/intracellular ROS and referred to hereafter as [ROS]intra) measurement in roots, 15 mm long Arabidopsis thaliana root segments, isolated from different two-week-old plants, were placed in a well (one root/well) of a microplate (96 Flat Black-Greiner Bio-One^TM CellStar^TM, Thermo Fisher Scientific, Hampton, VA, USA) filled with sterile water. After overnight incubation, roots were treated with 50 µM DCFH-DA (dichloro-dihydro-fluorescein diacetate; ACROS Organics, Geel, Belgium) for 10 min in the dark and rinsed with PBS, and next, wells were filled with CLP/mock solution. Fluorescence measurements (excitation wavelength 492 nm, emission wavelength 530 nm) were conducted by a Spark® (Tecan, Männedorf, Switzerland) microplate reader, using nine readings per well. Data, expressed as relative fluorescence increase, were obtained by subtracting the fluorescence measured at the first time point from the fluorescence measured at each time point (with the first time point being taken as 0). The fluorescence fold increase was defined for each repeat as the ratio between the fluorescence increase obtained at one time point for treatments and the mean fluorescence increase obtained at the same time point in mock-treated tissues.

[2] = system: Arabidopsis thaliana Col-0 root protoplasts; test: Calcium influx ([Ca2+]cyt) in root protoplasts, Fluo-4 AM probe; details: 10 µM, Fluo-4 normalized fluorescence (F/F0), within first 30 min; n = 6; Figure 4A,B
Method: Two-week-old Arabidopsis thaliana seedling roots (from 27 mg seeds) were collected and were cut into 1–2 mm segments and incubated in a protoplasting solution (20 mM MES pH 5.7, 0.4 M mannitol, 20 mM KCl, 10 mM CaCl2, 0.1% (w/v) BSA, 1.5% (w/v) cellulase R10 (Duchefa Biochemie, Haarlem, The Netherlands), 0.4% (w/v) macerozyme R10 (Duchefa Chimie)) for 3 h at room temperature and in the dark. After incubation, 1 mL of solution A (154 mM NaCl, 5 mM KCl, 125 mM CaCl2, 4 mM MES, pH = 5.7) was added inside. The suspension was agitated gently and filtered by a 70 µm pore filter to remove extra root debris. Filtered suspension was centrifuged at 850 g for 6 min at room temperature, and the pelleted protoplasts were rinsed three times with solution B (4 mM MES pH 5.7, 154 mM NaCl, 125 mM CaCl2, 5 mM KCl) before being resuspended in solution C (2 mM MES pH 5.7, 0.5 M mannitol, 20 mM KCl, 2 mM CaCl2) at a working concentration of 1–2 × 10^5 cells per mL. Calcium measurements were also performed on protoplasts with the Fluo-4 AM probe. Protoplasts isolated from roots of Arabidopsis thaliana Col-0 were incubated for 1 h with 5 µM of Fluo-4 AM (Thermo Fisher Scientific, Hampton, VA, USA) (from a 5 mM stock solution in DMSO). The suspension was then centrifuged at 750 g, and the supernatant was discarded to eliminate the remaining free fluo-4 AM. The protoplasts were resuspended in fresh solution C and were incubated for 1 h. Microplates (96 Flat Black-Greiner Bio-One^TM CellStar^TM, Fischer Scientific) were loaded with 150 µL of protoplast solution per well. After the addition of 50 µL of 4-times-concentrated treatment, the fluorescence was recorded every 15 s using a Spark® microplate reader (Tecan, Männedorf, Switzerland) with an excitation filter at 485 ± 20 nm and an emission filter at 535 ± 25 nm. The values obtained were then converted as normalized fluorescence increase (F/F0) by dividing the fluorescence measured at each time point (F) by the fluorescence measured at the first time point (F0).

[3] = system: Arabidopsis thaliana root protoplasts; test: NO burst in root protoplasts, DAF-DA probe; details: 10 µM, fold change at 20 min vs mock; n = 12; Figure 3C; in roots Srf and Liche increased NO, Pumi had no impact
Method: Two-week-old Arabidopsis thaliana seedling roots (from 27 mg seeds) were collected and were cut into 1–2 mm segments and incubated in a protoplasting solution (20 mM MES pH 5.7, 0.4 M mannitol, 20 mM KCl, 10 mM CaCl2, 0.1% (w/v) BSA, 1.5% (w/v) cellulase R10 (Duchefa Biochemie, Haarlem, The Netherlands), 0.4% (w/v) macerozyme R10 (Duchefa Chimie)) for 3 h at room temperature and in the dark. After incubation, 1 mL of solution A (154 mM NaCl, 5 mM KCl, 125 mM CaCl2, 4 mM MES, pH = 5.7) was added inside. The suspension was agitated gently and filtered by a 70 µm pore filter to remove extra root debris. Filtered suspension was centrifuged at 850 g for 6 min at room temperature, and the pelleted protoplasts were rinsed three times with solution B (4 mM MES pH 5.7, 154 mM NaCl, 125 mM CaCl2, 5 mM KCl) before being resuspended in solution C (2 mM MES pH 5.7, 0.5 M mannitol, 20 mM KCl, 2 mM CaCl2) at a working concentration of 1–2 × 10^5 cells per mL. For the detection of intracellular NO, roots were processed as described above and 200 µL sterile water was replaced by 200 µL 5 μM DAF-DA in a buffered solution (10 mM Tris/HCl, pH = 7.4). Roots were incubated at room temperature for 1 h in the absence of light and then washed 3 times with Tris/HCl (10 mM, pH = 7.4). The fluorescence emitted by DAF-DA was detected by excitation at 495 nm and emission at 515 nm. Experiments where NO was measured after pretreatment with the calcium channel blocker or calcium chelator included an additional step where LaCl3 (10 mM; Merck Chemicals SA, Hoeilaart, Belgium) or EGTA (1 mM; Merck Chemicals SA, Hoeilaart, Belgium) was added three minutes before treatments. Data were processed as described above for ROS. For NO measurements in protoplasts, the suspension was incubated in the same conditions before being distributed (50 µL) in microplate wells and treated with the CLPs at a 10 µM final concentration or with 0.1% DMSO as a mock.

Row | Substance | [ROS]intra production in roots vs mock [1] | [Ca2+]cyt increase in root protoplasts [2] | NO burst in root protoplasts, trend compared to roots [3]
1 | lichenysin | induced a significantly higher production of [ROS]intra | fast increase in [Ca^2+]cyt | very similar trend
2 | pumilacidin | did not retain any significant triggering activity | not significant | very similar trend
3 | surfactin [Srf] | induced a significantly higher production of [ROS]intra | fast increase in [Ca^2+]cyt | very similar trend
